Results taken from ChEMBL document CHEMBL1817663, “A synthetic antimicrobial peptidomimetic (LTX 109): stereochemical impact on membrane disruption” (J Med Chem, 2011).
Values after ≈ are worked out from the molar mass of the structure shown.

How the values were obtained:
Staphylococcus aureus = test: Antibacterial activity against Staphylococcus aureus ATCC 25923; assay type: functional
Pseudomonas aeruginosa = test: Antibacterial activity against Pseudomonas aeruginosa ATCC 27853; assay type: functional
[1] = Toxicity in human erythrocytes assessed as hemolytic activity; assay type: cell-based, Erythrocyte; conditions: read-out: HD50 (the source's name)
Escherichia coli = test: Antibacterial activity against Escherichia coli ATCC 25922; assay type: functional

Row | Compound | MIC (Staphylococcus aureus) [µg/mL] | MIC (Pseudomonas aeruginosa) [µg/mL] | HC50 [1] [µg/mL] | MIC (Escherichia coli) [µg/mL]
1 | CC(C)(C)c1cc(C(C)(C)C)c2[nH]c(C(C)(C)C)c(C[C@@H](NC(=O)[C@H](N)CCCNC(=N)N)C(=O)N[C@H](CCCNC(=N)N)C(=O)NCCc3ccccc3)c2c1 | 3 (≈ 3.81 µM) | 8 (≈ 10.2 µM) | 120 | 3 (≈ 3.81 µM)
2 | CC(C)(C)c1cc(C(C)(C)C)c2[nH]c(C(C)(C)C)c(C[C@H](NC(=O)[C@H](N)CCCNC(=N)N)C(=O)N[C@@H](CCCNC(=N)N)C(=O)NCCc3ccccc3)c2c1 | 2 (≈ 2.54 µM) | 10 (≈ 12.7 µM) | 175 | 3 (≈ 3.81 µM)
3 | CC(C)(C)c1cc(C(C)(C)C)c2[nH]c(C(C)(C)C)c(C[C@@H](NC(=O)[C@@H](N)CCCNC(=N)N)C(=O)N[C@H](CCCNC(=N)N)C(=O)NCCc3ccccc3)c2c1 | 2 (≈ 2.54 µM) | 8 (≈ 10.2 µM) | 135 | 4 (≈ 5.08 µM)
4 | CC(C)(C)c1cc(C(C)(C)C)c2[nH]c(C(C)(C)C)c(C[C@@H](NC(=O)[C@@H](N)CCCNC(=N)N)C(=O)N[C@@H](CCCNC(=N)N)C(=O)NCCc3ccccc3)c2c1 | 3 (≈ 3.81 µM) | 30 (≈ 38.1 µM) | 510 | 9 (≈ 11.4 µM)
5 | CC(C)(C)c1cc(C(C)(C)C)c2[nH]c(C(C)(C)C)c(C[C@H](NC(=O)[C@H](N)CCCNC(=N)N)C(=O)N[C@H](CCCNC(=N)N)C(=O)NCCc3ccccc3)c2c1 | 3 (≈ 3.81 µM) | 50 (≈ 63.4 µM) | 600 | 7 (≈ 8.88 µM)
6 | CC(C)(C)c1cc(C(C)(C)C)c2[nH]c(C(C)(C)C)c(C[C@H](NC(=O)[C@@H](N)CCCNC(=N)N)C(=O)N[C@H](CCCNC(=N)N)C(=O)NCCc3ccccc3)c2c1 | 3 (≈ 3.81 µM) | 50 (≈ 63.4 µM) | 535 | 10 (≈ 12.7 µM)
7 | CC(C)(C)c1cc(C(C)(C)C)c2[nH]c(C(C)(C)C)c(C[C@@H](NC(=O)[C@H](N)CCCNC(=N)N)C(=O)N[C@@H](CCCNC(=N)N)C(=O)NCCc3ccccc3)c2c1 | 4 (≈ 5.08 µM) | 50 (≈ 63.4 µM) | 605 | 10 (≈ 12.7 µM)
8 | CC(C)(C)c1cc(C(C)(C)C)c2[nH]c(C(C)(C)C)c(C[C@H](NC(=O)[C@@H](N)CCCNC(=N)N)C(=O)N[C@@H](CCCNC(=N)N)C(=O)NCCc3ccccc3)c2c1 [LTX-109] | 2 (≈ 2.54 µM) | 8 (≈ 10.2 µM) | 175 | 3 (≈ 3.81 µM)
